Experimental data from US20080021026A1, “BENZOTHIOPHENE INHIBITORS OF RHO KINASE” (priority 2006, published 2008).
pIC50: −log10 of the molar value. Like-named read-outs stand apart in the source and are kept apart here.

Tests used:
[1] = target: T1, recombinant N-terminal GST-tagged human Rho kinase 1 (ROCK1, amino acids 1-535) (Homo sapiens, UniProt Q13464); assay: In vitro Rho kinase assay (luciferase-based ATP consumption), ROCK1; assay type: biochemical
T1 construct: ROCK1, amino acids 1-535; purchased Invitrogen Inc. PV-3691
T1 sequence (Q13464 1-535): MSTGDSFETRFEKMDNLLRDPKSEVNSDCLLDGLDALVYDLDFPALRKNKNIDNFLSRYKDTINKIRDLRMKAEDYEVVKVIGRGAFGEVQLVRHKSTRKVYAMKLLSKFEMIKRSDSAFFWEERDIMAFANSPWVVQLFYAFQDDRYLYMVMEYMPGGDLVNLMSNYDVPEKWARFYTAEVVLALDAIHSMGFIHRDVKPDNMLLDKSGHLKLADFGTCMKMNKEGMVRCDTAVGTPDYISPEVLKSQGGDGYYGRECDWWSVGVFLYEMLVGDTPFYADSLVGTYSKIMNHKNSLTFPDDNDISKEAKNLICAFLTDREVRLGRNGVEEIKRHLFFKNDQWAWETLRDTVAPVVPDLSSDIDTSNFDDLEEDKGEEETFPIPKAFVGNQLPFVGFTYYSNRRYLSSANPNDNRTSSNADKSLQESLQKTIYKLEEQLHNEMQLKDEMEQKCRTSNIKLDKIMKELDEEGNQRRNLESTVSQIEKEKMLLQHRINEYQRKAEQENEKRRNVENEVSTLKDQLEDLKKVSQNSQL
Procedure: In Vitro Rho Kinase Assay
Rho kinase biochemical assays described below depend on firefly luciferase-based, indirect measurement of total ATP consumption by the kinase following incubation with substrate and ATP. 25 μl of Rho kinase assay buffer (20 mM Tris-HCL [pH 7.5], 1 mM MgCl2, 0.4 mM CaCl2, 0.15 mM EGTA, 0.1 mg/ml bovine serum albumin) containing 0.82 μg/ml of recombinant N-terminal GST-tagged human Rho kinase 1 (ROCK1, amino acids 1-535, Invitrogen Inc., cat. #PV-3691) or recombinant N-terminal GST-tagged human Rho kinase 2 (ROCK2, amino acids 1-552, Invitrogen Inc., cat #PV3759), 100 μg/ml S6 peptide substrate (related to amino acids 218-249 of the human 40S ribosomal protein S6, and suitable for ROCK1 or ROCK2, e.g. Upstate/Millipore Inc., cat #12-420), and 3 µM ATP are dispensed to wells of a 384 multi-well opaque plate. The plate is centrifuged for 30 seconds at approximately 200×g. 240 nl of test compound in DMSO is dispensed to each well by passive pin transfer. The lag phase of this in vitro kinase reaction permits addition of compounds soon after the reaction initiates. The reaction is allowed to incubate at 30° C. for 2 hours. The assay plates are sealed and maintained in a humidified environment. After 2 hours, 25 μl of easylite protein kinase assay reagent (Perkin-Elmer, Inc.) is dispensed. After an additional 10 minute incubation at room temperature (about 22° C.), luminescence activity is measured on a Molecular Devices Analyst multi-mode plate reader or other suitable plate reader. Kinase inhibition results in less ATP consumption, and therefore increased luminescence signal. Negative control activity is measured with DMSO lacking any test compound. The positive control is 2-methyl-1-(4-methylisoquinolin-5-ylsulfonyl)perhydro-1,4-diazepine hydrochloride (aka H-1152P, HCl salt). Efficacy is measured as a percentage of positive control activity. […] The designation NT means the cited example was not tested.

[2] = target: T2, recombinant N-terminal GST-tagged human Rho kinase 2 (ROCK2, amino acids 1-552) (Homo sapiens, UniProt O75116); assay: In vitro Rho kinase assay (luciferase-based ATP consumption), ROCK2; assay type: biochemical
T2 construct: ROCK2, amino acids 1-552; purchased Invitrogen Inc. PV3759
T2 sequence (O75116 1-552): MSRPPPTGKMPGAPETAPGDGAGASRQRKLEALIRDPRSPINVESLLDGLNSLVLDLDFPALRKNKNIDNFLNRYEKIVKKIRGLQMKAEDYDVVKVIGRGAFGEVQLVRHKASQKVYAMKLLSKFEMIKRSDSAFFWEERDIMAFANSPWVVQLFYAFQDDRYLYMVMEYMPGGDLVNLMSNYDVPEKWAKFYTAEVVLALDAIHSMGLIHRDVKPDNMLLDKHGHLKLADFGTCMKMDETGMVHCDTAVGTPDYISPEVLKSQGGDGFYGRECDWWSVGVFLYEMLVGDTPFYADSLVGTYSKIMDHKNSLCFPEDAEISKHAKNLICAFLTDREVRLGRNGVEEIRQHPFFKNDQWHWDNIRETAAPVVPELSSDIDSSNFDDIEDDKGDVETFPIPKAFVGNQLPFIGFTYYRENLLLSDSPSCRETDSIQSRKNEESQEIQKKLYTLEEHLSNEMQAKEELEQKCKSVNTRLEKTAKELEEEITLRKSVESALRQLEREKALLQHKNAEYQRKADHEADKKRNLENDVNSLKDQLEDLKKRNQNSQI
Procedure, shortened: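 Luciferase-based luminescence of leftover ATP after 2 h at 30 °C, where inhibition raises signal, reports activity of GST-tagged ROCK2 (aa 1-552) at 0.82 μg/ml. Conditions: S6 peptide 100 μg/ml, […], pH 7.5 Tris buffer. Results given as percent of H-1152P control activity.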

[3] = recombinant GST-tagged human ROCK1, luciferase-based ATP consumption, read-out: ROCK1 IC50
[4] = recombinant GST-tagged human ROCK2, luciferase-based ATP consumption, read-out: ROCK2 IC50

Row | Structure (SMILES) | pIC50 [1, 3] | pIC50 [2, 4] | pIC50 ([1]; ROCK1 IC50, recombinant GST-tagged human ROCK1, luciferase-based ATP consumption) | pIC50 ([2]; ROCK2 IC50, recombinant GST-tagged human ROCK2, luciferase-based ATP consumption)
1 | Cc1c(-c2ccnc(N)n2)sc2ccc(Cc3cccc(C#N)c3)cc12 [Example 40, 3-((2-(2-Aminopyrimidin-4-yl)-3-methylbenzo[b]thiophen-5-yl)methyl)benzonitrile] | > 5.30 | > 5.30 | – | –
2 | COc1cc(C=CC(=O)NCc2ccc3sc(-c4ccnc(N)n4)c(C)c3c2)ccc1O [Example 255, COc1cc(C═CC(═O)NCc2ccc3sc(c(C)c3c2)-c4ccnc(N)n4)ccc1O] | > 5.30 | > 5.30 | – | –
3 | Cc1c(-c2ccnc(N)n2)sc2ccc(CNC(=O)c3cc(F)c(Cl)cc3F)cc12 [Example 253, Cc1c(sc2ccc(CNC(═O)c3cc(F)c(Cl)cc3F)cc12)-c4ccnc(N)n4] | > 5.30 | > 5.30 | – | –
4 | COc1cccc(C(N)c2ccc3sc(-c4ccnc(N)n4)c(C)c3c2)c1 (centres unmarked) [Example 32, 4-(5-(Amino(3-methoxyphenyl)methyl)-3-methylbenzo[b]thiophen-2-yl)pyrimidin-2-amine] | > 5.30 | > 5.30 | – | –
5 | Cc1c(-c2ccnc(N)n2)sc2ccc(CNC(=O)C3CCc4ccccc4C3)cc12 (centres unmarked) [Example 199, Cc1c(sc2ccc(CNC(═O)C3CCc4ccccc4C3)cc12)-c5ccnc(N)n5] | < 5.30 | > 5.30 | – | –
6 | Cc1c(-c2ccnc(N)n2)sc2ccc(CNC(=O)C=Cc3ccccc3Cl)cc12 [Example 225, Cc1c(sc2ccc(CNC(═O)C═Cc3ccccc3Cl)cc12)-c4ccnc(N)n4] | – | – | < 5.30 | > 5.30
7 | Cc1cccc(C(=O)NCc2ccc3sc(-c4ccnc(N)n4)c(C)c3c2)c1[N+](=O)[O-] [Example 216, Cc1cccc(C(═O)NCc2ccc3sc(c(C)c3c2)-c4ccnc(N)n4)c1[N+]([O−])═O] | < 5.30 | > 5.30 | – | –
8 | Cc1c(-c2ccnc(N)n2)sc2ccc(CNC(=O)C(Cc3ccc(O)cc3)NC(=O)OC(C)(C)C)cc12 (centres unmarked) [Example 328, Cc1c(sc2ccc(CNC(═O)C(Cc3ccc(O)cc3)NC(═O)OC(C)(C)C)cc12)c4ccnc(N)n4] | > 5.30 | > 5.30 | – | –
9 | Cc1c(-c2ccnc(N)n2)sc2ccc(Cc3cccc(C(=O)NCCCN4CCOCC4)c3)cc12 [Example 49, 3-((2-(2-Aminopyrimidin-4-yl)-3-methylbenzo[b]thiophen-5-yl)methyl)-N-(3-morpholinopropyl)benzamide] | > 5.30 | > 5.30 | – | –
10 | Cc1c(-c2ccnc(N)n2)sc2ccc(CNC(=O)c3cccc(Cl)c3[N+](=O)[O-])cc12 [Example 264, Cc1c(sc2ccc(CNC(═O)c3cccc(Cl)c3[N+]([O−])═O)cc12)-c4ccnc(N)n4] | < 5.30 | > 5.30 | – | –
11 | Cc1c(-c2ccnc(N)n2)sc2ccc(CNC(=O)c3cccc(F)c3F)cc12 [Example 154, Cc1c(sc2ccc(CNC(═O)c3cccc(F)c3F)cc12)-c4ccnc(N)n4] | < 5.30 | > 5.30 | – | –
12 | COc1cccc(CCc2ccc3sc(-c4ccnc(N)n4)c(C)c3c2)c1 [Example 90, 4-(5-(3-Methoxyphenethyl)-3-methylbenzo[b]thiophen-2-yl)pyrimidin-2-amine] | < 5.30 | < 5.30 | – | –
13 | Cc1c(-c2ccnc(N)n2)sc2ccc(Nc3cccc(Oc4ccccc4)c3)cc12 [Example 53, 4-(3-Methyl-5-(3-phenoxyphenylamino)benzo[b]thiophen-2-yl)pyrimidin-2-amine] | > 5.30 | > 5.30 | – | –
14 | Cc1c(-c2ccnc(N)n2)sc2ccc(CNC(=O)c3ccccc3C=O)cc12 [Example 129, Cc1c(sc2ccc(CNC(═O)c3ccccc3C═O)cc12)-c4ccnc(N)n4] | > 5.30 | > 5.30 | – | –
15 | CC(=O)NC(Cc1ccc(O)cc1)C(=O)NCc1ccc2sc(-c3ccnc(N)n3)c(C)c2c1 (centres unmarked) [Example 299, CC(═O)N[C](Cc1ccc(O)cc1)C(═O)NCc2ccc3sc(c(C)c3c2)-c4ccnc(N)n4] | < 5.30 | < 5.30 | – | –
16 | COc1cccc(C(=O)NCc2ccc3sc(-c4ccnc(N)n4)c(C)c3c2)c1OC [Example 222, COc1cccc(C(═O)NCc2ccc3sc(c(C)c3c2)-c4ccnc(N)n4)c1OC] | < 5.30 | > 5.30 | – | –
17 | Cc1c(-c2ccnc(N)n2)sc2ccc(CNC(=O)C=Cc3ccccc3F)cc12 [Example 173, Cc1c(sc2ccc(CNC(═O)C═Cc3ccccc3F)cc12)-c4ccnc(N)n4] | < 5.30 | > 5.30 | – | –

Row | Structure (SMILES) | pIC50 [1, 3] | pIC50 [2, 4] | pIC50 ([1]; ROCK1 IC50, recombinant GST-tagged human ROCK1, luciferase-based ATP consumption) | pIC50 ([2]; ROCK2 IC50, recombinant GST-tagged human ROCK2, luciferase-based ATP consumption)
18 | CC1=NN(c2ccc(C(=O)NCc3ccc4sc(-c5ccnc(N)n5)c(C)c4c3)cc2)C(=O)C1 [Example 295, CC1═NN(C(═O)C1)c2ccc(cc2)C(═O)NCc3ccc4sc(c(C)c4c3)-c5ccnc(N)n5] | > 5.30 | < 5.30 | – | –
19 | CCOC(=O)CC(=O)NCc1ccc2sc(-c3ccnc(N)n3)c(C)c2c1 [Example 117, CCOC(═O)CC(═O)NCc1ccc2sc(c(C)c2c1)-c3ccnc(N)n3] | < 5.30 | > 5.30 | – | –
20 | Cc1c(-c2ccnc(N)n2)sc2ccc(CNC(=O)c3ccc(Cl)cc3[N+](=O)[O-])cc12 [Example 267, Cc1c(sc2ccc(CNC(═O)c3ccc(Cl)cc3[N+]([O−])═O)cc12)-c4ccnc(N)n4] | < 5.30 | > 5.30 | – | –
21 | COc1ccccc1C=CC(=O)NCc1ccc2sc(-c3ccnc(N)n3)c(C)c2c1 [Example 200, COc1ccccc1C═CC(═O)NCc2ccc3sc(c(C)c3c2)-c4ccnc(N)n4] | > 5.30 | > 5.30 | – | –
22 | Cc1ccc(C(=O)NCc2ccc3sc(-c4ccnc(N)n4)c(C)c3c2)c(C)c1 [Example 131, Cc1ccc(c(C)c1)C(═O)NCc2ccc3sc(c(C)c3c2)-c4ccnc(N)n4] | > 5.30 | > 5.30 | – | –
23 | Cc1ccc([N+](=O)[O-])c(C(=O)NCc2ccc3sc(-c4ccnc(N)n4)c(C)c3c2)c1 [Example 217, Cc1ccc(c(c1)C(═O)NCc2ccc3sc(c(C)c3c2)-c4ccnc(N)n4)[N+]([O−])═O] | < 5.30 | > 5.30 | – | –
24 | Cc1c(-c2ccnc(N)n2)sc2ccc(CNC(=O)c3cscn3)cc12 [Example 116, Cc1c(sc2ccc(CNC(═O)c3cscn3)cc12)-c4ccnc(N)n4] | < 5.30 | > 5.30 | – | –
25 | COc1cccc(N(C)c2ccc3sc(-c4ccnc(N)n4)c(C)c3c2)c1 [Example 78, 4-(5-((3-Methoxyphenyl)(methyl)amino)-3-methylbenzo[b]thiophen-2-yl)pyrimidin-2-amine] | > 5.30 | > 5.30 | – | –
26 | Cc1ccc(C(=O)NCc2ccc3sc(-c4ccnc(N)n4)c(C)c3c2)cc1 [Example 120, Cc1ccc(cc1)C(═O)NCc2ccc3sc(c(C)c3c2)-c4ccnc(N)n4] | < 5.30 | > 5.30 | – | –
27 | CC(=O)Nc1cccc(Nc2ccc3sc(-c4ccnc(N)n4)c(C)c3c2)c1 [Example 58, N-(3-(2-(2-Aminopyrimidin-4-yl)-3-methylbenzo[b]thiophen-5-ylamino)phenyl)acetamide] | > 5.30 | > 5.30 | – | –
28 | Cc1c(-c2ccnc(N)n2)sc2ccc(CNC(=O)C3CCCO3)cc12 (centres unmarked) [Example 106, Cc1c(sc2ccc(CNC(═O)C3CCCO3)cc12)-c4ccnc(N)n4] | < 5.30 | > 5.30 | – | –
29 | CCCCCCCC(=O)NCc1ccc2sc(-c3ccnc(N)n3)c(C)c2c1 [Example 125] | < 5.30 | > 5.30 | – | –
30 | Cc1c(-c2ccnc(N)n2)sc2ccc(CNC(=O)Cc3ccc(O)c(Cl)c3)cc12 [Example 234, Cc1c(sc2ccc(CNC(═O)Cc3ccc(O)c(Cl)c3)cc12)-c4ccnc(N)n4] | > 5.30 | > 5.30 | – | –
31 | Cc1c(-c2ccnc(N)n2)sc2ccc(CNC(=O)Cc3ccc(Br)cc3)cc12 [Example 288, Cc1c(sc2ccc(CNC(═O)Cc3ccc(Br)cc3)cc12)-c4ccnc(N)n4] | > 5.30 | > 5.30 | – | –
32 | Cc1c(-c2ccnc(N)n2)sc2ccc(CNC(=O)Cc3c(F)cccc3F)cc12 [Example 188, Cc1c(sc2ccc(CNC(═O)Cc3c(F)cccc3F)cc12)-c4ccnc(N)n4] | > 5.30 | > 5.30 | – | –
33 | COc1ccccc1Cc1ccc2sc(-c3ccnc(N)n3)c(C)c2c1 [Example 37, 4-(5-(2-Methoxybenzyl)-3-methylbenzo[b]thiophen-2-yl)pyrimidin-2-amine] | < 5.30 | < 5.30 | – | –
34 | Cc1c(-c2ccnc(N)n2)sc2ccc(Nc3ccccc3)cc12 [Example 69, 4-(3-Methyl-5-(phenylamino)benzo[b]thiophen-2-yl)pyrimidin-2-amine] | > 5.30 | > 5.30 | – | –
